{"source": "patent US12312359B2", "about": "(Vitae Pharmaceuticals, LLC, priority 2016, dated 2025)", "key": {"[1]": {"assay": "Water activity analysis (slurries) of sesquifumaric acid salt forms", "type": "physicochemical", "settings": "for Result (solid form after water activity slurry): ambient, 7 days; for Form conversion in water activity slurry: 0.22 aw (and up)"}, "[2]": {"assay": "Concentration in water to achieve pH=7", "type": "physicochemical"}, "[3]": {"assay": "Physical stability analysis of sesquifumaric acid salt forms (drying, heating)", "type": "physicochemical"}, "[4]": {"target": "T1, biotinylated wild-type menin and MLL-AF9 fusion protein (menin/MLL binding) (Homo sapiens, UniProt O00255)", "T1 construct": "made in house; host or cells: menin: E. coli; MLL-AF9-FLAG: HEK293 cells, used as cleared lysate", "T1 sequence (O00255 1-610)": "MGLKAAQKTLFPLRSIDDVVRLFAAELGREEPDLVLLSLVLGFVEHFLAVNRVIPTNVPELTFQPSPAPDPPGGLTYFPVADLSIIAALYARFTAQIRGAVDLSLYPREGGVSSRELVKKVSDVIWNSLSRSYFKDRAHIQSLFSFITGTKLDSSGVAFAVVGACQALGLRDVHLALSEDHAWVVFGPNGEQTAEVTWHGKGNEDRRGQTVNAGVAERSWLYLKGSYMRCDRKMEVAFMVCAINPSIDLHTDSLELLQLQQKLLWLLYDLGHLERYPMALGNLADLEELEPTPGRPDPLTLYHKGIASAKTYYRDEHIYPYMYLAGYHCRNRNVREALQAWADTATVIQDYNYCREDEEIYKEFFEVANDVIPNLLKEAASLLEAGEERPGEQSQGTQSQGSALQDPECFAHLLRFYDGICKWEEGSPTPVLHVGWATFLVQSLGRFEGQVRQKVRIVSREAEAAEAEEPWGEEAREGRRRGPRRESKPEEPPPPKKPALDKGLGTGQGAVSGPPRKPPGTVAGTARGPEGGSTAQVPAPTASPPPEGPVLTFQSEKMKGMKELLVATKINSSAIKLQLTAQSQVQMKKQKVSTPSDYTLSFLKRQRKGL", "assay": "Assay 1: menin/MLL binding AlphaLISA assay, wild-type menin", "settings": "Table 30; column head does not say wild-type or mutated menin", "summary_of_the_method": "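Compound was preincubated 30 min at room temperature with biotinylated menin (5 nM) and MLL-AF9-FLAG lysate from HEK293 cells, pH 7.4 buffer with 5% DMSO and DTT. Bead-based Alpha signal after 60 min with streptavidin donor and anti-FLAG acceptor beads; four-parameter logistic fit gave IC50.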"}, "[5]": {"test_system": "human acute monocytic leukemia cell line MV-4-11", "assay": "Assay 2: cell proliferation assay (ATP quantitation, CellTiter-Glo), MV-4-11", "type": "cell-based", "settings": "Homo sapiens, MV4-11, 72 h, MV-4-11 cells", "summary_of_the_method": "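Read-out is CellTiter-Glo luminescence quantifying ATP. Compound exposure lasted 72 h at 37° C., 5% CO2, with 1.67×10^4 MV-4-11 cells per well in 10% FBS medium, alongside HL-60 toxicity-control cells.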"}}}
{"smiles": "CC(C)N(C(=O)c1cc(F)ccc1Oc1cncnc1N1CC2(CCN(CC3CCC(NS(C)(=O)=O)CC3)CC2)C1)C(C)C.CC(C)N(C(=O)c1cc(F)ccc1Oc1cncnc1N1CC2(CCN(CC3CCC(NS(C)(=O)=O)CC3)CC2)C1)C(C)C.O=C(O)/C=C/C(=O)O.O=C(O)/C=C/C(=O)O.O=C(O)/C=C/C(=O)O", "note": "(centres unmarked)", "values": [{"measurement": "Result (solid form after water activity slurry)", "setting": "[1]; H2O/ACN, water activity 0.38 (2 vol % H2O)", "value": "Form A"}, {"measurement": "Result (solid form after water activity slurry)", "setting": "[1]; H2O/ACN, water activity 0.60 (4 vol % H2O)", "value": "Form A"}, {"measurement": "Result (solid form after water activity slurry)", "setting": "[1]; H2O/IPA, water activity 0.50 (6 vol % H2O)", "value": "Form A"}, {"measurement": "Result (solid form after water activity slurry)", "setting": "[1]; H2O/IPA, water activity 0.70 (11 vol % H2O)", "value": "Form A"}, {"measurement": "Result (solid form after water activity slurry)", "setting": "[1]; H2O/IPA, water activity 0.96 (50 vol % H2O)", "value": "Form A"}, {"measurement": "Result (solid form after water activity slurry)", "setting": "[1]; H2O/acetone, water activity 0.22 (1 vol % H2O)", "value": "Form A"}, {"measurement": "Result (solid form after water activity slurry)", "setting": "[1]; H2O/acetone, water activity 0.44 (3 vol % H2O)", "value": "Form A"}, {"measurement": "Result (solid form after water activity slurry)", "setting": "[1]; H2O/acetone, water activity 0.80 (18 vol % H2O)", "value": "Form A"}, {"measurement": "Result (solid form after water activity slurry)", "setting": "[1]; H2O/acetone, water activity 0.91 (50 vol % H2O)", "value": "Form A"}]}
{"smiles": "CCN(C(=O)c1cc(F)ccc1Oc1cncnc1N1CC2(CCN(CC3CCC(NS(=O)(=O)CC)CC3)CC2)C1)C(C)C", "note": "(centres unmarked) [Example 254, N-Ethyl-2-((4-(7-(((1r,4r)-4-(ethylsulfonamido)cyclohexyl)methyl)-2,7-diazaspiro[3.5]nonan-2-yl)pyrimidin-5-yl)oxy)-5-fluoro-N-isopropylbenzamide]", "values": [{"measurement": "Concentration in water to achieve pH=7", "setting": "[2]", "value": 7.6, "unit": "mg/mL"}]}
{"smiles": "CC(C)N(C(=O)c1cc(F)ccc1Oc1cncnc1N1CC2(CCN(C[C@H]3CC[C@H](NS(C)(=O)=O)CC3)CC2)C1)C(C)C.CC(C)N(C(=O)c1cc(F)ccc1Oc1cncnc1N1CC2(CCN(C[C@H]3CC[C@H](NS(C)(=O)=O)CC3)CC2)C1)C(C)C.O=C(O)/C=C/C(=O)O.O=C(O)/C=C/C(=O)O.O=C(O)/C=C/C(=O)O", "note": "[Form E, 5-fluoro-N,N-diisopropyl-2-((4-(7-(((1r,4r)-4-(methylsulfonamido)cyclohexyl)methyl)-2,7-diazaspiro[3.5]nonan-2-yl)pyrimidin-5-yl)oxy)benzamide sesquifumaric acid salt]", "values": [{"measurement": "Form change after 45° C. vacuum oven", "setting": "[3]", "value": "No changes observed in XRPD"}, {"measurement": "Result (solid form after physical stability stress)", "setting": "[3]; 45° C. vacuum, 1 day", "value": "Form E"}]}
{"smiles": "CC(C)N(C(=O)c1cc(F)ccc1Oc1cncnc1N1CC2(CCN(C[C@H]3CC[C@H](NS(C)(=O)=O)CC3)CC2)C1)C(C)C.CC(C)N(C(=O)c1cc(F)ccc1Oc1cncnc1N1CC2(CCN(C[C@H]3CC[C@H](NS(C)(=O)=O)CC3)CC2)C1)C(C)C.O=C(O)/C=C/C(=O)O.O=C(O)/C=C/C(=O)O.O=C(O)/C=C/C(=O)O", "note": "[Form B, 5-fluoro-N,N-diisopropyl-2-((4-(7-(((1r,4r)-4-(methylsulfonamido)cyclohexyl)methyl)-2,7-diazaspiro[3.5]nonan-2-yl)pyrimidin-5-yl)oxy)benzamide sesquifumaric acid salt]", "values": [{"measurement": "Form conversion in water activity slurry", "setting": "[1]", "value": "Converted to Form A"}, {"measurement": "Form change after 45° C. vacuum oven", "setting": "[3]", "value": "converted to Form D"}]}
{"smiles": "CCN(C(=O)c1cc(F)ccc1Oc1cncnc1N1CC2(CCN(CC3CCC(NS(=O)(=O)CC)CC3)CC2)C1)C(C)C.Cl.Cl", "note": "(centres unmarked) [Example 257, N-Ethyl-2-((4-(7-(((1r,4r)-4-(ethylsulfonamido)cyclohexyl)methyl)-2,7-diazaspiro[3.5]nonan-2-yl)pyrimidin-5-yl)oxy)-5-fluoro-N-isopropylbenzamide Bis-Hydrochloric Acid Salt]", "values": [{"measurement": "Concentration in water to achieve pH=7", "setting": "[2]", "value": 317.6, "unit": "mg/mL"}]}
{"smiles": "CC(C)N(C(=O)c1cc(F)ccc1Oc1cncnc1N1CC2(CCN(C[C@H]3CC[C@H](NS(C)(=O)=O)CC3)CC2)C1)C(C)C.CC(C)N(C(=O)c1cc(F)ccc1Oc1cncnc1N1CC2(CCN(C[C@H]3CC[C@H](NS(C)(=O)=O)CC3)CC2)C1)C(C)C.O=C(O)/C=C/C(=O)O.O=C(O)/C=C/C(=O)O.O=C(O)/C=C/C(=O)O", "note": "[Form D, 5-fluoro-N,N-diisopropyl-2-((4-(7-(((1r,4r)-4-(methylsulfonamido)cyclohexyl)methyl)-2,7-diazaspiro[3.5]nonan-2-yl)pyrimidin-5-yl)oxy)benzamide sesquifumaric acid salt]", "values": [{"measurement": "Form conversion in water activity slurry", "setting": "[1]", "value": "Converted to Form A"}, {"measurement": "Result (solid form after physical stability stress)", "setting": "[3]; 75% RH, 2 days", "value": "Form D"}]}
{"smiles": "CCN(C(=O)c1cc(F)ccc1Oc1cncnc1N1CC2(CCN(CC3CCC(NS(=O)(=O)CC)CC3)CC2)C1)C(C)C.CCN(C(=O)c1cc(F)ccc1Oc1cncnc1N1CC2(CCN(CC3CCC(NS(=O)(=O)CC)CC3)CC2)C1)C(C)C.O=C(O)/C=C/C(=O)O.O=C(O)/C=C/C(=O)O.O=C(O)/C=C/C(=O)O", "note": "(centres unmarked) [Example 255, N-Ethyl-2-((4-(7-(((1r,4r)-4-(ethylsulfonamido)cyclohexyl)methyl)-2,7-diazaspiro[3.5]nonan-2-yl)pyrimidin-5-yl)oxy)-5-fluoro-N-isopropylbenzamide Sesquifumaric Acid Salt]", "values": [{"measurement": "Concentration in water to achieve pH=7", "setting": "[2]", "value": 224.7, "unit": "mg/mL"}]}
{"smiles": "CCN(C(=O)c1cc(F)ccc1Oc1cncnc1N1CC2(CCN(CC3CCC(NS(=O)(=O)CC)CC3)CC2)C1)C(C)C.CS(=O)(=O)O.CS(=O)(=O)O", "note": "(centres unmarked) [Example 256, N-Ethyl-2-((4-(7-(((1r,4r)-4-(ethylsulfonamido)cyclohexyl)methyl)-2,7-diazaspiro[3.5]nonan-2-yl)pyrimidin-5-yl)oxy)-5-fluoro-N-isopropylbenzamide Bis-Methanesulfonic Acid Salt]", "values": [{"measurement": "Concentration in water to achieve pH=7", "setting": "[2]", "value": 261, "unit": "mg/mL"}]}
{"smiles": "CCN(C(=O)C(C)C)c1cc(F)ccc1Oc1cncnc1N1CC2(CN(CC3CCOCC3)C2)C1", "note": "[Example 121, N-ethyl-N-(5-fluoro-2-((4-(6-((tetrahydro-2H-pyran-4-yl)methyl)-2,6-diazaspiro[3.3]heptan-2-yl)pyrimidin-5-yl)oxy)phenyl)isobutyramide]", "values": [{"measurement": "IC50", "setting": "[4]", "value": "< 100", "unit": "nM"}, {"measurement": "EC50", "setting": "[5]", "value": "100 to 1000", "unit": "nM"}]}
{"smiles": "CC(C)c1ccccc1-c1cc(F)ccc1Oc1cnccc1N1CCC2(CCN(Cc3ccc4[nH]c(=O)[nH]c4c3)C2)C1", "note": "(centres unmarked) [Example 249, 5-((7-(3-((5-fluoro-2′-isopropyl-[1,1′-biphenyl]-2-yl)oxy)pyridin-4-yl)-2,7-diazaspiro[4.4]nonan-2-yl)methyl)-1,3-dihydro-2H-benzo[d]imidazol-2-one]", "values": [{"measurement": "IC50", "setting": "[4]", "value": "< 100", "unit": "nM"}, {"measurement": "EC50", "setting": "[5]", "value": "100 to 1000", "unit": "nM"}]}
{"smiles": "CCN(C(=O)C(C)C)c1cc(F)ccc1Oc1cncnc1N1CC2(CN(C(=O)C3Cc4ccc(S(C)(=O)=O)cc4C3)C2)C1", "note": "(centres unmarked) [Example 117, N-ethyl-N-(5-fluoro-2-((4-(6-(5-(methylsulfonyl)-2,3-dihydro-1H-indene-2-carbonyl)-2,6diazaspiro[3.3]heptan-2-yl)pyrimidin-5-yl)oxy)phenyl)iso-butyramide]", "values": [{"measurement": "IC50", "setting": "[4]", "value": "< 100", "unit": "nM"}, {"measurement": "EC50", "setting": "[5]", "value": "100 to 1000", "unit": "nM"}]}
{"smiles": "CC(C)C1CCC(=O)N1c1cc(F)ccc1Oc1cncnc1N1CCC2(CCN(Cc3ccc4[nH]c(=O)[nH]c4c3)C2)C1", "note": "(centres unmarked) [Example 218, 5-((7-(5-(4-fluoro-2-(2-isopropyl-5-oxopyrrolidin-1-yl)phenoxy)pyrimidin-4-yl)-2,7-diazaspiro[4.4]nonan-2-yl)methyl)-1,3-dihydro-2H-benzo[d]imidazol-2-one]", "values": [{"measurement": "IC50", "setting": "[4]", "value": "< 100", "unit": "nM"}, {"measurement": "EC50", "setting": "[5]", "value": "≥ 1000", "unit": "nM"}]}
{"smiles": "CC(C)N(C(=O)c1cc(F)ccc1Oc1cncnc1N1CC2(CCN(C[C@H]3CC[C@H](NS(C)(=O)=O)CC3)CC2)C1)C(C)C.CC(C)N(C(=O)c1cc(F)ccc1Oc1cncnc1N1CC2(CCN(C[C@H]3CC[C@H](NS(C)(=O)=O)CC3)CC2)C1)C(C)C.O=C(O)/C=C/C(=O)O.O=C(O)/C=C/C(=O)O.O=C(O)/C=C/C(=O)O", "note": "[Form F, 5-fluoro-N,N-diisopropyl-2-((4-(7-(((1r,4r)-4-(methylsulfonamido)cyclohexyl)methyl)-2,7-diazaspiro[3.5]nonan-2-yl)pyrimidin-5-yl)oxy)benzamide sesquifumaric acid salt]", "values": [{"measurement": "Form conversion when slurried in ACN/water mixture", "setting": "[1]; slurried in ACN/water mixture", "value": "Conversion to Form A was observed"}]}
{"smiles": "N#Cc1ccc(-c2cc(F)ccc2Oc2cncnc2N2CCC3(CCN(Cc4ccc5oc(=O)[nH]c5c4)C3)C2)c(C2CC2)c1", "note": "(centres unmarked) [Example 169, 2-cyclopropyl-5′-fluoro-2′-((4-(7-((2-oxo-2,3-dihydrobenzo[d]oxazol-5-yl)methyl)-2,7-diazaspiro[4.4]nonan-2-yl)pyrimidin-5-yl)oxy)-[1,1′-biphenyl]-4-carbonitrile]", "values": [{"measurement": "IC50", "setting": "[4]", "value": "< 100", "unit": "nM"}, {"measurement": "EC50", "setting": "[5]", "value": "< 100", "unit": "nM"}]}
{"smiles": "O=c1[nH]c2ccc(CN3CCC4(CCN(c5ncncc5Oc5ccc(F)cc5CN5CCOCC5)C4)C3)cc2[nH]1", "note": "(centres unmarked) [Example 70, 5-((7-(5-(4-fluoro-2-(morpholinomethyl)phenoxy)pyrimidin-4-yl)-2,7-diazaspiro[4.4]nonan-2-yl)methyl)-1H-benzo[d]imidazol-2(3H)-one]", "values": [{"measurement": "IC50", "setting": "[4]", "value": "< 100", "unit": "nM"}, {"measurement": "EC50", "setting": "[5]", "value": "< 100", "unit": "nM"}]}
